Test results as given in US8268635B2, “Methods of identifying agents that selectively activate p38 and/or NKkB signaling” (priority 2006, dated 2012).
Where no end group is shown, it is not given here.

Key:
NFκB = NFκB pathway activation in human neutrophils (nuclear translocation of NFκB); type: cell-based
Method: After cell lysis, nuclear fractions were prepared, nuclear proteins separated by SDS page (12% gel), transferred to nitrocellulose and probed with an anti NFκB p65 antibody (Santa Cruz).
Western blot analysis was conducted as described previously (Hii, C. S., Huang, Z. H., Bilney, A., Costabile, M., Murray, A. W., Rathjen, D. A., Der, C. J., and Ferrante, A. (1998) J. Biol. Chem. 273: 19277-19282). Briefly, equal amounts of denatured protein from each lysate were separated by 12% SDS polyacrylamide gel electrophoresis (PAGE). The proteins were electrophoretically transferred to nitrocellulose membranes (Schleicher and Schuell, Keene, N. H., USA)(3 h at 40V). […] Immune complexes were visualised by enhanced chemiluminescence (Hii, C. S., Huang, Z. H., Bilney, A., Costabile, M., Murray, A. W., Rathjen, D. A., Der, C. J., and Ferrante, A. (1998) J. Biol. Chem. 273: 19277-19282).
This pathway, akin to the p38 pathway, is dependent on TRAF-2 and RIP (Kyriakis, J. M., and Auruch, J. (2001) Physiol Rev. 81: 807-869). We measured the nuclear translocation of NFκB as an indicator of the activation of this pathway.

ASK-1 = ASK-1 autophosphorylation in HEK293T cells; type: cell-based, human; conditions: 3 or 7 min
Method: GCKR was immunoprecipitated from cell lysates and activity assayed using myelin basic protein (MBP) as the substrate. […] Activation of ASK-1 was determined by kinase autophosphorylation.
KHS (hereon referred to as “GCKR”) activity was assayed as described previously using myelin basic protein as a substrate (Shi, C. S., Leonardi, A., Kyriakis, J., Siebenlist, U., and Kerhl, J. H. (1999) J. Immunol. 163: 3279-3285). ASK-1 activation was determined in immunoprecipitates of ASK-1 by autophosphorylation (Kyriakis, J. M., and Auruch, J. (2001) Physiol. Rev. 81: 807-869). p38 and ERK activities were determined as described using myelin basic protein as a substrate (Hii, C. S., Huang, Z. H., Bilney, A., Costabile, M., Murray, A. W., Rathjen, D. A., Der, C. J., and Ferrante, A. (1998) J. Biol. Chem. 273: 19277-19282). […] A solid phase assay using glutathione-S-transferase (GST)-conjugated-jun (1-79) was employed to assay JNK activity (Hii, C. S., Huang, Z. H., Bilney, A., Costabile, M., Murray, A. W., Rathjen, D. A., Der, C. J., and Ferrante, A. (1998) J. Biol. Chem. 273: 19277-19282). Phosphorylated ASK-1, myelin basic protein and GST-jun (1-79) were fractionated on 8, 16 and 12% SDS polyacrylamide gels, respectively, and the bands were detected and radioactivity determined using an Instant Imager (Packard Instruments, Canberra, Australia).

Which results are given for PSTHVLITHTI-OH [TNF70-80]?
nuclear translocation of NFκB in neutrophils (NFκB; TNF70-80 10 μM, 30 min or 1 h): caused the translocation of NFκB to the nucleus; degradation of IκB (NFκB; data not shown): caused the degradation of IκB; ASK-1 autophosphorylation in HEK293T cells (ASK-1): did not affect the level of ASK-1 phosphorylation
